How the values were obtained:
melan-A cells [1] = test: Melanin generation inhibition by measuring OD405 in melan-A melanocytes; assay type: cell-based; conditions: for Melanin generation rate (%): culture for three days, vs non-treated group = 100
Description: Melan-A melanocytes were provided by AmorePacific Co., Korea. Melan-A is the cell line producing melanin, which has been usually used for the examination of a whitening agent. For cell culture, RPMI1640 medium supplemented with 10% FBS, 1% penicillin/streptomycin, and 200 nM TPA was prepared and sterilized. The cells were cultured in a 37° C., 10% CO2 incubator. When the melan-A cells were grown to fill 90% of 100 mm Petri-dish, the cells were sub-cultured.
The cells were recovered by using trypsine-EDTA. 1N NaOH containing 10% DMSO (dimethylsulfoxide) was added to the recovered cells, followed by reaction at 80° C. for 1 hour to let melanin dissolved fully. Then, OD405 was measured using ELISA reader (VERSAmax, Molecular device, USA). Melanin generation was quantified by the following mathematical formula 1 (Table 1, FIGS. 4 and 5).
Melanin generation rate (%)=OD of treated group/OD of non-treated group×100 [Mathematical Formula 1]

melan-A cells [2] = test: Cytotoxicity test (MTT, OD540) in Melan-A cells; assay type: cell-based; conditions: for Cell survival rate (%): Melan-A cells, MTT, three days, vs non-treated group = 100
Description: Upon completion of the culture, the medium was eliminated and 100 μl of MTT (3-(4,5-dimethythiazol-2-yl)-2,5-diphenyltetrazoliu,bromide) solution was added to each well of the plate, followed by reaction at 37° C. for 4 hours. Upon completion of the reaction, the solution was eliminated and 100 μl of DMSO was added to each well of the plate to lyse the stained cells. Then, OD540 was measured using ELISA reader. Cell survival rate was calculated by the following mathematical formula 2 (Table 2, FIGS. 4 and 5).
Cell survival rate (%)=(OD of treated group/OD of non-treated group)×100 [Mathematical Formula 2]

With `NC(=S)Nc1ccccc1` [Phenylthiourea, phenylthiourea, reference compound] the “Melanin generation rate (%)” value (melan-A cells [1]; 50 uM) was 36.19% and the “Cell survival rate (%)” value (melan-A cells [2]; 50 uM) was 100.19%.
In the case of `C/C=C\C#CC#C/C=C\C(=O)OC` [(2Z,8Z)-matricaria acid methyl ester], the “Melanin generation rate (%)” value (melan-A cells [1]; 4.5 uM) is reported as 36.37%, the “Melanin generation rate (%)” value (melan-A cells [1]; 9 uM) is reported as 26.92% and the “Melanin generation (result in words)” value (melan-A cells [1]; compared with non-treated negative control (and positive control PTU for the compound)) is reported as “inhibited melanin generation at a lower concentration”. The “Cell survival rate (%)” value (melan-A cells [2]; 4.5 uM) was 106.66%, the “Cell survival rate (%)” value (melan-A cells [2]; 9 uM) was 99.44% and the “Cytotoxicity (result in words)” value (melan-A cells [2]; at a low concentration) was “no cytotoxicity was observed”.
